Laboratory results as given in US3971814A, “Benzo(b)thiophene derivatives” (priority 1972, dated 1976).
“Also recorded” adds a separate entry of the source.

Experiments:
in vivo [1] = conditions: rat, po
Method: experimental animals are male mice (NMRI) weighing 16 to 24 g and male rats (SIV 50) weighing 120 to 180 g.
Prior to the beginning of the test, all animals are kept fasting for 16 to 18 hours, however water is offered ad libitum. 6 mice and 4 or 6 rats belonged to each dosage group and the doses between each group are increased logarithmically. The volume of liquid administered during testing amounted to 2 ml/100 g body weight. The substances tested are suspended in 1 percent Tragacanth mucilage and administered intragastrically via a gastric tube.

[2] = test system: Yeast Edema of the Rat Paw; test: Yeast edema and determination of pain threshold in the rat paw; assay type: in vivo; conditions: 3 h; for Pain Threshold (change vs initial value) / Volume (increase in paw volume, blank control = 100%): i.g.
Method: test animals are male rats (SIV 50) weighing 100 to 180 g. […] 10 animals belonged to each dosage group.
The volume of the paw is determined according to the method described by Enders and Heidbrink, the pain threshold according to that described by Randall and Selitto (Arch. Int. Pharmacodyn CXI: 409, 1957).
Following initial measurements, […] of a 5% suspension of dried yeast is injected subplantarly into the right paw and the test substances are administered immediately. The blank control group is given Tragacanth mucilage only. After 3 hours the pain threshold and the volume of the paw are determined again.
The mean value of the increase in paw volume of the animals of the blank control after 3 hours is rated 100%, and the mean value of the increase in paw volume of the animals of the substance groups expressed as a percentage thereof. Pain threshold after 3 hours reflects the increase or decrease in percent, compared to the initial value.
In order to be able to calculate the ED50 according to the method by Lichtfield and Wilcoxon (J.P.E.T. 96:99, 1949), those animals in a dose group are considered protected when the paw swelling was at least 40% less than that of the blank control.

[3] = test system: Carrageenin Edema of the Rat Paw; test: Carrageenin edema of the rat paw; assay type: in vivo
Method: test animals used are the same as stated under Example B and up to the initial measurement, the procedure corresponded to that described under this example.
After an initial measurement, the test substances are administered and after 60 minutes a 1% Carrageenin suspension is injected subplantarly (0.1 ml/paw). After 60 and 180 minutes the paw volume is again determined. Here, too, the blank control group was treated with the carrier alone.
The increase in the volume of the paw after 60 minutes is considered as the first phase of the biphase edema and that after 180 minutes, as compared to the 60-minute-value, as the second phase. Moreover, the total increase of the paw edema within 180 minutes, as compared to the initial value, is also determined.
Determination of the influence exerted by the substances upon the development of the paw edema and calculation of the ED50 are done as under Example B.

[4] = test system: Kaolin Edema of the Rat Paw; test: Kaolin edema of the rat paw; assay type: in vivo
Method: test animals used are the same as stated under Example B and up to the beginning of the test, the procedure corresponded to that described under this example.
After an initial measurement, a sterile 25% kaolin suspension was injected (0.05 ml/paw) subplantarly. The test substances are administered immediately, and after 60, 120, and 180 minutes the paw volume is again determined.
Evaluation of the tests was performed as stated under Example C, and the results so obtained presented below: […]

Granulation Tissue [5] = test: Cotton-pellet test (granulation tissue); assay type: in vivo; conditions: rat; for Granulation Tissue % (Dry Weight) / Increase in Body Weight: i.g.; for granulation tissue % dry weight: section K
Method: test animals are male rats (SIV 50) weighing 110 to 200 g. All test animals are kept fasting for 16 to 18 hours prior to the implantation of the pellets; after that food and water were available ad libitum. Each dose level of the chemical tested was administered to 12 animals. The substances were suspended in 1% Tragacanth mucilage and administered intragastrically by means of a stomach tube. The substances to be investigated and the control suspensions are administered once on the operating day following operation, and twice a day on the following 6 days (at intervals of 6 to 8 hours). The type of application and volume of liquid corresponded to that under B.
Under light ether anesthesia 4 sterile cotton pellets were implanted under the skin on the back of the animal. The weight of one pellet was 50 mg ± 0.5 mg. After 7 days treatment, the animals were sacrificed, the pellets removed with the granulation tissue, weighed and then dried in the incubator at +80°C to constant weight. The average dry weight of the granulation tissue of the control group was rated 100%, and deviations of the mean weights of the group treated with the test substance determined as a percentage thereof.
The weight of the animals is measured daily throughout the tests, and the percental increase determined. At the end of some tests, moreover, the suprarenal glands are removed and their weight determined.

Granuloma Pouch = test: Granuloma pouch test; assay type: in vivo; conditions: rat, i.g.
Method: Under light ether anesthesia 25 ml of air are injected under the shaved skin of the back. 0.5 ml of croton oil/animal (0.05%) are injected into the pouch formed by the air, and evenly distributed over the back by turning the animal.
On the third day croton oil (3%, 0.5 ml/animal) is again injected into this pouch.
The average dry weights of the granuloma pouches and the quantities of secretion of the groups subjected to treatment are then compared with those of the control group and the percental deviations calculated.
At the end of some tests the suprarenal glands are removed and the weight of these organs is also determined.
The weight of the animals is measured daily and the changes determined as a percentage.

[6] = test system: Arthritis Induced by the Freund Adjuvant; test: Adjuvant arthritis; assay type: in vivo; conditions: rat, i.g.
Method: test animals used are the same as described under Example E; food and water is given ad libitum.
On the first day of the test a 0.8% suspension of Mycobacterium butyrium in paraffin (0.05 or 0.1 ml/paw) is injected subplantarly into the left hind paw of the animals. […] From the 19th to the 22nd day the animals showing a reaction are treated intragastrically with the test substances. The right paw having been marked above the ankle-joint, the volume is determined daily from the 19th to the 22nd or 23rd day, according to the process described under Example B.
The volume of liquid, as well as of the carrier administered, corresponded to that described in the above tests.

male mice (NMRI) [7] = test: Hot-plate test (analgesia); assay type: in vivo; conditions: mouse
Method: male mice (NMRI) weighing 18 to 28 g are used as test animals. The animals are placed on a copper plate constantly kept at 55°C, and the time is measured until they lick their forepaws.
Following 3 initial measurements, the test substances are administered intragastrically. Afterwards the measurements are repeated over a period of 2 hours at intervals of 30 minutes. Each dose is administered to 10 animals selected from groups of 15 animals following the initial measurements.
The test substances are administered as a suspension in 1% Tragacanth mucilage, the volume of liquid amounting to 2 ml/100 g of body weight.
For the purpose of statistical evaluation according to Litchfield and Wilcoxon, those animals in which the reaction time has been extended by at least 100% are considered protected.

[8] = Summary: calculated ED50 and therapeutic ratio; assay type: in vivo, rat; conditions: for ED50: Rattus norvegicus; for therapeutic ratio: from ED50 and LD50 (A)
Method: From the ED50 and LD50 (A) the following therapeutic ratios for this test are calculated: […]

in vivo [9] = conditions: mouse
[10] = test system: increased body temperature of the rat; test: Antipyresis (yeast-induced fever); assay type: in vivo; conditions: i.g.
Method: test animals are male rats (SIV 50) weighing 100 to 180 g. 16 hours prior to the beginning of the test a 12% suspension of dried yeast (1 or 2 ml/100 g of body weight) is injected subcutaneously. When the maximum of the increase in body temperature is reached, following 3 to 4 initial measurements, the test substances are applied intragastrically and the development of the body temperature is observed for a period of 7 hours.
The test substances administered are suspended in Tragacanth mucilage; the volume of liquid administered amounting to 2 ml/100 g of body weight. In this test 2 control groups are used, one given sodium chloride subcutaneously (normal temperature group) and to the other group a yeast suspension is administered subcutaneously but, instead of the test substances, Tragacanth mucilage is administered intragastrically (fever control group).

[11] = Overall summary of pharmacological results in words; assay type: in vivo
male mice (NMRI) [12] = conditions: mouse, in vivo
Granulation Tissue [13] = test: Cotton-pellet test (granulation tissue); assay type: in vivo; conditions: rat, sc., section K; for increase in body weight %: control 27

COc1ccc2c(c1)c(CC(=O)O)c(C)n2C(=O)c1ccc(Cl)cc1 [Indomethacin, 1-(p-Chlorobenzoyl)-5-methoxy-2-methylindole-3-acetic acid]
LD50 (in vivo [1]): 20 to 30 mg/kg
Pain Threshold (change vs initial value) ([2]; 5.0 mg/kg): -22%
Volume (increase in paw volume, blank control = 100%) ([2]; 5.0 mg/kg): 131%
Pain Threshold (change vs initial value) ([2]; 20.0 mg/kg): +11%
Volume (increase in paw volume, blank control = 100%) ([2]; 20.0 mg/kg): 108%
change in vivo at 5 mg/kg ([2]; po, ig., 5 mg/kg, section K): -22%
response vs control in vivo at 5 mg/kg ([2]; po, ig., 5 mg/kg, section K, read-out: volume (paw, control = 100%)): 100%
1st Phase (paw edema) ([3]; 1.0 mg/kg): 65%
2nd Phase (paw edema) ([3]; 1.0 mg/kg): 80%
3 Hrs. (total paw edema) ([3]; 1.0 mg/kg): 73%
1st Phase (paw edema) ([3]; 5.0 mg/kg): 80%
2nd Phase (paw edema) ([3]; 5.0 mg/kg): 73%
3 Hrs. (total paw edema) ([3]; 5.0 mg/kg): 73%
60 Minutes (paw edema) ([4]; 2.5 mg/kg): 79%
120 Minutes (paw edema) ([4]; 2.5 mg/kg): 81%
180 Minutes (paw edema) ([4]; 2.5 mg/kg): 81%
Granulation Tissue % (Dry Weight) (Granulation Tissue [5]; 2 × 1.5 mg/kg daily): 80%
Increase in Body Weight (Granulation Tissue [5]; 2 × 1.5 mg/kg daily): not influenced
granulation tissue % dry weight (Granulation Tissue [5]; ig., 2×1,5 mg/kg daily, NaCl control group): 91%
granulation tissue % dry weight (Granulation Tissue [5]; ig., 2×1,5 mg/kg daily, tragacanth control group): 65%
Exitus (footnote) (Granuloma Pouch; 2 × 1.5 mg/kg daily): Exitus of an animal
Granuloma Pouch Dry Weight (Granuloma Pouch; 2 × 1.5 mg/kg daily): 98%
Increase in Body Weight (Granuloma Pouch; 2 × 1.5 mg/kg daily): not influenced
Secretion (Granuloma Pouch; 2 × 1.5 mg/kg daily): 134%
Swelling ([6]; 2 × 2.5 mg/kg): 80%
Notes (analgesic activity) (male mice (NMRI) [7]; i.g.): slightly effective
protection (male mice (NMRI) [7]; i.g., starting with 20 mg/kg): approx. 50%
ED50 [8]: 0.9 mg/kg
therapeutic ratio [8]: 33.3
LD50 (in vivo [9]; po): < 10 mg/kg

CCOC(=N)c1sc2ccccc2c1O [Example 2, Ethyl 3-Hydroxy-Benzo[b]Thiophene-2-Carboximidate]
Pain Threshold (change vs initial value) ([2]; 31.2 mg/kg): +10%
Volume (increase in paw volume, blank control = 100%) ([2]; 31.2 mg/kg): 77%
Pain Threshold (change vs initial value) ([2]; 62.5 mg/kg): +46%
Volume (increase in paw volume, blank control = 100%) ([2]; 62.5 mg/kg): 50%
Volume (increase in paw volume, blank control = 100%) ([2]; 125.0 mg/kg): 35%
1st Phase (paw edema) ([3]; 62.5 mg/kg): 65%
2nd Phase (paw edema) ([3]; 62.5 mg/kg): 73%
3 Hrs. (total paw edema) ([3]; 62.5 mg/kg): 62%
1st Phase (paw edema) ([3]; 125.0 mg/kg): 65%
2nd Phase (paw edema) ([3]; 125.0 mg/kg): 27%
3 Hrs. (total paw edema) ([3]; 125.0 mg/kg): 42%
1st Phase (paw edema) ([3]; 250.0 mg/kg): 29%
2nd Phase (paw edema) ([3]; 250.0 mg/kg): 20%
3 Hrs. (total paw edema) ([3]; 250.0 mg/kg): 25%
60 Minutes (paw edema) ([4]; 25.0 mg/kg): 36%
120 Minutes (paw edema) ([4]; 25.0 mg/kg): 44%
180 Minutes (paw edema) ([4]; 25.0 mg/kg): 50%
60 Minutes (paw edema) ([4]; 50.0 mg/kg): 62%
120 Minutes (paw edema) ([4]; 50.0 mg/kg): 40%
180 Minutes (paw edema) ([4]; 50.0 mg/kg): 5%
Granulation Tissue % (Dry Weight) (Granulation Tissue [5]; 2 × 75 mg/kg daily): 78%
Increase in Body Weight (Granulation Tissue [5]; 2 × 75 mg/kg daily): not influenced
Granuloma Pouch Dry Weight (Granuloma Pouch; 2 × 125 mg/kg daily): 70%
Increase in Body Weight (Granuloma Pouch; 2 × 125 mg/kg daily): not influenced
Secretion (Granuloma Pouch; 2 × 125 mg/kg daily): 59%
Swelling ([6]; 2 × 125.0 mg/kg): 81%
analgesic activity (male mice (NMRI) [7]; as shown in (H)): sufficient analgesic activity
antipyretic effect ([10]; 150 mg/kg vs 300 mg/kg acetylsalicylic acid): considerably more effective than 300 mg/kg of acetylsalicylic acid
antipyretic effect (decreasing body temperature) ([10]; yeast fever, vs control substances): superiority of the Example 2 substance for decreasing body temperature; also recorded: stronger than that of comparable substances
ED50 [8]: 93.1 mg/kg
therapeutic ratio [8]: 42.9
anti-inflammatory effect ([11]; all test models): proved in all test models; also recorded: of the same order as that of the most potent commercially available anti-inflammatory preparations
analgesic activity ([11]; compared to customary anti-inflammatory preparations): particularly marked
anti-inflammatory effect ([11]; doses as low as 50 mg/kg): clear anti-inflammatory effect
toxicity levels vs standard substances ([11]; in vivo): very favorable
LD50 (male mice (NMRI) [12]): 3.890 mg/kg

CCN(CC)CCNC(=N)c1sc2ccccc2c1O [Example 30]
change in vivo at 150 mg/kg ([2]; sc., 150 mg/kg, section K (control -26)): 18%
response vs control in vivo at 150 mg/kg ([2]; sc., 150 mg/kg, section K, read-out: volume (paw, control = 100%)): 53%
granulation tissue % dry weight (Granulation Tissue [5]; sc., 2×75,0 mg/kg daily): 68%
granulation tissue % dry weight (Granulation Tissue [13]; 2×50,0 mg/kg daily): 82%
increase in body weight % (Granulation Tissue [13]; 2×50,0 mg/kg daily): 27%
increase in body weight % (Granulation Tissue [13]; 2×75,0 mg/kg daily): 27%
LD50 (in vivo [9]; po): ~1000 mg/kg
LD50 (in vivo [9]; sc): ~1000 mg/kg
